Data from ChEMBL document CHEMBL1145750, “Synthesis and biological evaluation of 2'-methyl taxoids derived from baccatin III and 14beta-OH-baccatin III 1,14-carbonate” (J Med Chem, 2003).

Tests used:
[1] = Potency differential in resistant to that of sensitive A2780ADR cell line; format: functional, A2780 ADR
[2] = system: MCF7R; assay: In vitro cytotoxicity against MCF7-R cell line; format: functional, cell-based; details: Homo sapiens
[3] = system: MCF7; assay: In vitro cytotoxicity against MCF-7 cell line; format: functional, cell-based; details: Homo sapiens
[4] = Potency differential in resistant to that of sensitive A2780CIS cell line; format: functional
[5] = system: A2780; assay: In vitro cytotoxicity against A2780ADR cell line; details: Homo sapiens
[6] = system: A2780; assay: In vitro cytotoxicity against A2780TAX cell line; details: Homo sapiens
[7] = system: A2780; assay: In vitro cytotoxicity against A2780CIS cell line; details: Homo sapiens
[8] = system: A2780; assay: In vitro cytotoxicity against A2780 cell line; details: Homo sapiens
[9] = Potency differential in resistant to that of sensitive A2780TAX cell line; format: functional
[10] = (§1) Potency differential in resistant to that of sensitive MCF7-R cell line; format: functional
[11] = system: MCF7R; assay: as §1; format: functional, cell-based; details: Homo sapiens

Row | SMILES | Ratio [1] | IC50 [2] | IC50 [3] | Ratio [4] | IC50 [5] | IC50 [6] | IC50 [7] | IC50 [8] | Ratio [9] | Ratio [10] | Ratio [11]
1 | CC(=O)O[C@H]1C(=O)[C@@]2(C)[C@H]([C@H](OC(=O)c3ccccc3)[C@]34OC(=O)O[C@H]3[C@H](OC(=O)[C@](C)(O)[C@@H](NC(=O)OC(C)(C)C)c3ccco3)C(C)=C1C4(C)C)[C@]1(OC(C)=O)CO[C@@H]1C[C@@H]2O | 4 | 16 nM | 1.7 nM | 0.4 | 27.1 nM | 30.9 nM | 2.5 nM | 5.9 nM | 5 | 9.4 | –
2 | CC(=O)O[C@H]1C(=O)[C@@]2(C)[C@H]([C@H](OC(=O)c3ccccc3)[C@]34OC(=O)O[C@H]3[C@H](OC(=O)[C@](C)(O)[C@@H](NC(=O)OC(C)(C)C)c3ccccc3)C(C)=C1C4(C)C)[C@]1(OC(C)=O)CO[C@@H]1C[C@@H]2O | 21 | – | – | 0.7 | 52.9 nM | 299 nM | 1.7 nM | 2.5 nM | 118 | – | –
3 | CC(=O)O[C@H]1C(=O)[C@@]2(C)[C@H]([C@H](OC(=O)c3ccccc3)[C@]3(O)C[C@H](OC(=O)[C@](C)(O)[C@@H](NC(=O)c4ccccc4)c4ccco4)C(C)=C1C3(C)C)[C@]1(OC(C)=O)CO[C@@H]1C[C@@H]2O | 20 | – | – | 0.9 | 61.4 nM | 420 nM | 2.9 nM | 3.1 nM | 135 | – | –
4 | CC(=O)O[C@H]1C(=O)[C@@]2(C)[C@H]([C@H](OC(=O)c3ccccc3)[C@]3(O)C[C@H](OC(=O)[C@](C)(O)[C@@H](NC(=O)OC(C)(C)C)c4ccco4)C(C)=C1C3(C)C)[C@]1(OC(C)=O)CO[C@@H]1C[C@@H]2O | 14 | – | – | 1.1 | 41.3 nM | 312 nM | 3.3 nM | 2.9 nM | 107 | – | –
5 | CC(=O)O[C@H]1C(=O)[C@@]2(C)[C@H]([C@H](OC(=O)c3ccccc3)[C@]34OC(=O)O[C@H]3[C@H](OC(=O)[C@](C)(O)[C@@H](NC(=O)OC(C)(C)C)C(F)(F)F)C(C)=C1C4(C)C)[C@]1(OC(C)=O)CO[C@@H]1C[C@@H]2O | 17 | – | – | 0.6 | 79.3 nM | 285 nM | 2.8 nM | 4.6 nM | 61 | – | –
6 | CC(=O)O[C@H]1C(=O)[C@@]2(C)[C@H]([C@H](OC(=O)c3ccccc3)[C@]34OC(=O)O[C@H]3[C@H](OC(=O)[C@H](O)[C@H](CC(C)C)NC(=O)OC(C)(C)C)C(C)=C1C4(C)C)[C@]1(OC(C)=O)CO[C@@H]1C[C@@H]2O [ORTATAXEL] | 13 | 36 nM | 1.1 nM | 0.7 | 63 nM | 56 nM | 3.6 nM | 4.8 nM | 12 | – | 33
